Patent EP0908457B1, “3-(1,2-benzisothiazol- and isoxazol-5-Y1)-2,4(1H,3H)-pyrimidinedione or thione and 3-(1,2-benzisothiazol- and isoxazol-5-y1)-4(3H)-pyrimidinone or thione herbicidal agents” (BASF AKTIENGESELLSCHAFT, priority 1997, dated 1999)

What was measured:
[1] = tested on: Cyperus serotinus, Rottb.; assay: Preemergence weed control under flooded paddy conditions, CYPSE (Flatsedge); type: in vivo; conditions: for herbicidal effect rating, CYPSE / CYPSE: preemergence weeds; for herbicidal effect rating, CYPSE / CYPSE herbicidal effect rating: rated three to four weeks after treatment; for CYPSE: herbicidal effect rating 0-9, three to four weeks after treatment; for CYPSE herbicidal effect rating: preemergence; for herbicidal effect rating, CYPSE: meaning of each grade not given here
[2] = tested on: Monochoria vaginalis, Presl.; assay: Preemergence weed control under flooded paddy conditions, MOOVA (Monochoria); type: in vivo; conditions: flooded paddy; for herbicidal effect rating, MOOVA / MOOVA: preemergence weeds; for herbicidal effect rating, MOOVA / MOOVA herbicidal effect rating: rated three to four weeks after treatment; for MOOVA: herbicidal effect rating 0-9, three to four weeks after treatment; for MOOVA herbicidal effect rating: preemergence; for herbicidal effect rating, MOOVA: meaning of each grade not given here
[3] = tested on: Sagittaria pygmaea, L.; assay: Preemergence weed control under flooded paddy conditions, SAGPY (Arrowhead (Pygmaea)); type: in vivo; conditions: flooded paddy; for herbicidal effect rating, SAGPY / SAGPY: preemergence weeds; for herbicidal effect rating, SAGPY / SAGPY herbicidal effect rating: rated three to four weeks after treatment; for SAGPY: herbicidal effect rating 0-9, three to four weeks after treatment; for SAGPY herbicidal effect rating: preemergence; for herbicidal effect rating, SAGPY: meaning of each grade not given here
[4] = tested on: Cyperus iria; assay: Preemergence weed control under flooded paddy conditions, CYPIR (Rice Flatsedge); type: in vivo; conditions: flooded paddy; for herbicidal effect rating, CYPIR / CYPIR: preemergence weeds; for herbicidal effect rating, CYPIR / CYPIR herbicidal effect rating: rated three to four weeks after treatment; for CYPIR: herbicidal effect rating 0-9, three to four weeks after treatment; for CYPIR herbicidal effect rating: preemergence; for herbicidal effect rating, CYPIR: meaning of each grade not given here
[5] = tested on: Oryza sativa, (L.) Tebonnet; assay: Rice tolerance to post-transplant applications under flooded paddy conditions (Example 187), ORYSAT (Rice, Tebonnet); conditions: for herbicidal effect rating ORYSAT / ORYSAT herbicidal effect rating: rated three to four weeks after treatment; for ORYSAT: herbicidal effect rating 0-9, three to four weeks after treatment
[6] = tested on: Echinochloa oryzoides (Ard.) Fritsch.; assay: Preemergence weed control under flooded paddy conditions, ECHORC (Watergrass (Calif.)); type: in vivo; conditions: flooded paddy; for herbicidal effect rating, ECHORC / ECHORC: preemergence weeds; for herbicidal effect rating, ECHORC / ECHORC herbicidal effect rating: rated three to four weeks after treatment; for ECHORC: herbicidal effect rating 0-9, three to four weeks after treatment; for ECHORC herbicidal effect rating: preemergence; for herbicidal effect rating, ECHORC: meaning of each grade not given here

Structure (SMILES): CC(Oc1ccccc1-c1nsc2ccc(-n3c(=O)cc(C(F)(F)F)n(C)c3=O)cc12)C(=O)O (stereo not shown) [Example 314, Propionic acid, 2-{o-{5-[3,6-dihydro-3-methyl-2,6-dioxo-4-(trifluoromethyl)-1(2H)-pyrimidinyl]-1,2-benzisothiazol-3-yl}phenoxy}-]
- herbicidal effect rating, CYPSE ([1]; Rate 0.0320 kg/ha): 0.0
- herbicidal effect rating, CYPSE ([1]; Rate 0.0620 kg/ha): 0.0
- herbicidal effect rating, CYPSE ([1]; Rate 0.1250 kg/ha): 0.0
- herbicidal effect rating, CYPSE ([1]; Rate 0.2500 kg/ha): 0.0
- herbicidal effect rating, MOOVA ([2]; Rate 0.0320 kg/ha): 9.0
- herbicidal effect rating, MOOVA ([2]; Rate 0.0620 kg/ha): 9.0
- herbicidal effect rating, MOOVA ([2]; Rate 0.1250 kg/ha): 9.0
- herbicidal effect rating, MOOVA ([2]; Rate 0.2500 kg/ha): 9.0
- herbicidal effect rating, SAGPY ([3]; Rate 0.0320 kg/ha): 0.0
- herbicidal effect rating, SAGPY ([3]; Rate 0.0620 kg/ha): 0.0
- herbicidal effect rating, SAGPY ([3]; Rate 0.1250 kg/ha): 0.0
- herbicidal effect rating, SAGPY ([3]; Rate 0.2500 kg/ha): 0.0
- herbicidal effect rating, CYPIR ([4]; Rate 0.0320 kg/ha): 9.0
- herbicidal effect rating, CYPIR ([4]; Rate 0.0620 kg/ha): 9.0
- herbicidal effect rating, CYPIR ([4]; Rate 0.1250 kg/ha): 9.0
- herbicidal effect rating, CYPIR ([4]; Rate 0.2500 kg/ha): 9.0
- herbicidal effect rating ORYSAT ([5]; Rate 0.0320 kg/ha): 3.0
- herbicidal effect rating ORYSAT ([5]; Rate 0.0620 kg/ha): 3.0
- herbicidal effect rating ORYSAT ([5]; Rate 0.1250 kg/ha): 4.0
- herbicidal effect rating ORYSAT ([5]; Rate 0.2500 kg/ha): 5.0
- herbicidal effect rating, ECHORC ([6]; Rate 0.0320 kg/ha): 5.0
- herbicidal effect rating, ECHORC ([6]; Rate 0.0620 kg/ha): 5.0
- herbicidal effect rating, ECHORC ([6]; Rate 0.1250 kg/ha): 9.0
- herbicidal effect rating, ECHORC ([6]; Rate 0.2500 kg/ha): 9.0

Structure (SMILES): CCSC(=O)c1nsc2ccc(-n3c(=O)cc(C(F)(F)F)n(C)c3=O)cc12 [Example 422, 1,2-Benzisothiazole-3-thiocarboxylic acid, 5-[3,6-dihydro-3-methyl-2,6-dioxo-4-(trifluoromethyl)-1(2H)-pyrimidinyl]-, S-ethyl ester]
- CYPSE ([1]; 0.0320 kg/ha): 0.0
- CYPSE ([1]; 0.0620 kg/ha): 5.0
- MOOVA ([2]; 0.0320 kg/ha): 7.0
- MOOVA ([2]; 0.0620 kg/ha): 9.0
- MOOVA ([2]; 0.1250 kg/ha): 9.0
- MOOVA ([2]; 0.2500 kg/ha): 9.0
- SAGPY ([3]; 0.0320 kg/ha): 0.0
- SAGPY ([3]; 0.0620 kg/ha): 0.0
- SAGPY ([3]; 0.1250 kg/ha): 3.0
- SAGPY ([3]; 0.2500 kg/ha): 6.0
- CYPIR ([4]; 0.0320 kg/ha): 5.0
- CYPIR ([4]; 0.0620 kg/ha): 6.0
- CYPIR ([4]; 0.1250 kg/ha): 9.0
- CYPIR ([4]; 0.2500 kg/ha): 9.0
- ORYSAT ([5]; 0.0320 kg/ha): 0.0
- ORYSAT ([5]; 0.0620 kg/ha): 0.0
- ORYSAT ([5]; 0.1250 kg/ha): 2.0
- ORYSAT ([5]; 0.2500 kg/ha): 3.0
- ECHORC ([6]; 0.0320 kg/ha): 5.0
- ECHORC ([6]; 0.0620 kg/ha): 6.0
- ECHORC ([6]; 0.1250 kg/ha): 9.0
- ECHORC ([6]; 0.2500 kg/ha): 9.0

Structure (SMILES): C=CCCOCc1nsc2ccc(-n3c(=O)cc(C(F)(F)F)n(C)c3=O)cc12 [Example 223, 3-{3-[(3-Butenyloxy)methyl]-1,2-benzisothiazol-5-yl}-1-methyl-6-(trifluoromethyl)-2,4(1H,3H)-pyrimidinedione]
- CYPSE herbicidal effect rating ([1]; Rate 0.0313 kg/ha): 0.0
- CYPSE herbicidal effect rating ([1]; Rate 0.0625 kg/ha): 4.0
- CYPSE herbicidal effect rating ([1]; Rate 0.1250 kg/ha): 6.0
- CYPSE herbicidal effect rating ([1]; Rate 0.2500 kg/ha): 8.0
- MOOVA herbicidal effect rating ([2]; Rate 0.0313 kg/ha): 9.0
- MOOVA herbicidal effect rating ([2]; Rate 0.0625 kg/ha): 9.0
- MOOVA herbicidal effect rating ([2]; Rate 0.1250 kg/ha): 9.0
- MOOVA herbicidal effect rating ([2]; Rate 0.2500 kg/ha): 9.0
- SAGPY herbicidal effect rating ([3]; Rate 0.0313 kg/ha): 0.0
- SAGPY herbicidal effect rating ([3]; Rate 0.0625 kg/ha): 2.0
- SAGPY herbicidal effect rating ([3]; Rate 0.1250 kg/ha): 6.0
- SAGPY herbicidal effect rating ([3]; Rate 0.2500 kg/ha): 9.0
- CYPIR herbicidal effect rating ([4]; Rate 0.0313 kg/ha): 4.0
- CYPIR herbicidal effect rating ([4]; Rate 0.0625 kg/ha): 7.0
- CYPIR herbicidal effect rating ([4]; Rate 0.1250 kg/ha): 7.0
- CYPIR herbicidal effect rating ([4]; Rate 0.2500 kg/ha): 9.0
- ORYSAT herbicidal effect rating ([5]; Rate 0.0313 kg/ha): 7.0
- ORYSAT herbicidal effect rating ([5]; Rate 0.0625 kg/ha): 8.0
- ORYSAT herbicidal effect rating ([5]; Rate 0.1250 kg/ha): 8.0
- ORYSAT herbicidal effect rating ([5]; Rate 0.2500 kg/ha): 9.0
- ECHORC herbicidal effect rating ([6]; Rate 0.0313 kg/ha): 6.0
- ECHORC herbicidal effect rating ([6]; Rate 0.0625 kg/ha): 6.0
- ECHORC herbicidal effect rating ([6]; Rate 0.1250 kg/ha): 8.0
- ECHORC herbicidal effect rating ([6]; Rate 0.2500 kg/ha): 9.0
